Assay results published in patent publication US11104652B2, “Stereochemically enriched compositions for delivery of nucleic acids” (TRANSLATE BIO, INC., priority 2014, dated 2021).
Several values for one entry are separate records, joined by “and”; a condition that tells them apart may be missing. Equal entries are not always repeated.

Experiments:
CD-1 mice = assay: Toxicity studies: expression levels of ALT and AST after ASS1 mRNA-loaded lipid nanoparticles; format: in vivo, mouse
Method: (§1) All studies were performed using male CD-1 mice of approximately 6-8 weeks of age at the beginning of each experiment. Samples were introduced by a single bolus tail-vein injection of an equivalent total dose of 1.0 mg/kg (or otherwise specified) of encapsulated ASS1 mRNA. Mice were sacrificed and perfused with saline at the designated time points.
All animals were euthanized by CO2 asphyxiation at designated time points post dose administration (±5%) followed by thoracotomy and terminal cardiac blood collection. Whole blood (maximal obtainable volume) will be collected via cardiac puncture on euthanized animals into serum separator tubes, allowed to clot at room temperature for at least 30 minutes, centrifuged at 22° C.±5° C. at 9300 g for 10 minutes, and the serum will be extracted. For interim blood collections, approximately 40-50 μL of whole blood will be collected via facial vein puncture or tail snip. Samples collected from non treatment animals were used as a baseline ASS1 levels for comparison to study animals.
The chiral compounds of formula I generally yielded lower expression levels of ALT and/or AST, i.e., correlating to lower liver toxicity issues, compared to stereochemically non-enriched, or stereochemically less enriched, compositions of the same lipid.

[1] = test system: human ASS1 protein production in wild type mouse liver; assay: In vivo human ASS1 protein production (ELISA) via hASS1 mRNA-loaded lipid nanoparticles; conditions: Table 1, human ASS1 by ELISA, CD-1 mice, single bolus intravenous injection, 1.0 mg/kg encapsulated ASS1 mRNA, twenty-four hours post-injection
Method: as §1
The liver, spleen, kidney and heart of each mouse was harvested, apportioned into separate parts, and stored in either 10% neutral buffered formalin or snap-frozen and stored at −80° C. for analysis.
Human ASS1 ELISA: Standard ELISA procedures were followed employing mouse anti-ASS1 2D1-2E12 IgG as the capture antibody with rabbit anti-ASS1 #3285 IgG as the secondary (detection) antibody (Shire Human Genetic Therapies). Horseradish peroxidase (HRP)-conjugated goat anti-rabbit IgG was used for activation of the 3,3′,5,5′-tetramethylbenzidine (TMB) substrate solution. The reaction was quenched using 2N H2SO4 after 20 minutes. Detection was monitored via absorption (450 nm) on a Molecular Device SpectraMax instrument. Untreated mouse serum and organs and human ASS1 protein were used as negative and positive controls, respectively.
The production of human ASS1 protein via codon-optimized hASS1 mRNA-loaded lipid nanoparticles, comprising compounds of formula I, was tested in CD-1 mice as a single, bolus intravenous injection, as described above. FIG. 1 depicts the amount of human ASS1 protein detected via ELISA when treating mice human ASS1 mRNA-loaded lipid nanoparticles, with various racemic and chiral compounds of formula I, at 1.0 mg/kg doses. The mice were sacrificed twenty-four hours post-injection and organs, such as livers, were harvested.

[2] = Table 1, ASS1 mRNA-loaded lipid nanoparticles with the named cKK-E12 composition as cationic lipid, mice, intravenous
[3] = Table 2, single intravenous dose, 24 hours post, formulation cKK-E12:DOPE:Chol:DMG-PEG2K, several lots per structure, in U/L
[4] = Table 2, single intravenous dose, 24 hours post, formulation cKK-E12:DOPE:Chol:DMG-PEG2K, several lots per structure, listed as S4-RS/SR, in U/L

Row | SMILES | ALT (CD-1 mice; [2]) | AST (CD-1 mice; [2]) | ALT (CD-1 mice; [3]) | AST (CD-1 mice; [3]) | ASS1 (ng/mg Total Protein) [1] | ASS1 (ng/mg Total Protein) ([1]; 1 mg/kg) | ALT (CD-1 mice; [4]) | AST (CD-1 mice; [4])
1 | CCCCCCCCCC[C@H](O)CN(CCCC[C@@H]1NC(=O)[C@H](CCCCN(C[C@@H](O)CCCCCCCCCC)C[C@@H](O)CCCCCCCCCC)NC1=O)C[C@@H](O)CCCCCCCCCC [S4-S,S-cKKE12, (3S,6S)-3,6-bis(4-(bis((S)-2-hydroxydodecyl)amino)butyl)piperazine-2,5-dione] | 226 ± 71 U/L | 384 ± 233 U/L | 226 ± 71 | 384 ± 233 | 1121 ± 468 ng/mg Total Protein |  |  | 
2 | CCCCCCCCCC[C@@H](O)CN(CCCCC1NC(=O)C(CCCCN(C[C@H](O)CCCCCCCCCC)C[C@H](O)CCCCCCCCCC)NC1=O)C[C@H](O)CCCCCCCCCC (mixture of isomers) [R4 with Racemic Lysine Core] | 188 ± 22 U/L and 236 ± 163 U/L | 265 ± 122 U/L and 237 ± 139 U/L |  |  |  | 823 ± 215 ng/mg Total Protein and 568 ± 248 ng/mg Total Protein |  | 
3 | CCCCCCCCCCC(O)CN(CCCC[C@@H]1NC(=O)[C@H](CCCCN(CC(O)CCCCCCCCCC)CC(O)CCCCCCCCCC)NC1=O)CC(O)CCCCCCCCCC (mixture of isomers) [Racemic —OH with SS Lysine Core] | 378 ± 58 U/L and 618 ± 503 U/L | 622 ± 76 U/L and 638 ± 273 U/L |  |  |  | 117 ± 80 ng/mg Total Protein and 209 ± 169 ng/mg Total Protein |  | 
4 | CCCCCCCCCC[C@H](O)CN(CCCC[C@@H]1NC(=O)[C@@H](CCCCN(C[C@@H](O)CCCCCCCCCC)C[C@@H](O)CCCCCCCCCC)NC1=O)C[C@@H](O)CCCCCCCCCC [S4-S,R-cKKE12] | 190 ± 75 U/L | 193 ± 71 U/L |  |  | 2303 ± 491 ng/mg Total Protein |  | 143 ± 29 and 189 ± 47 and 190 ± 75 | 240 ± 98 and 203 ± 87 and 193 ± 71
5 | CCCCCCCCCC[C@@H](O)CN(CCCC[C@H]1NC(=O)[C@@H](CCCCN(C[C@H](O)CCCCCCCCCC)C[C@H](O)CCCCCCCCCC)NC1=O)C[C@H](O)CCCCCCCCCC [R4-RR] |  |  | 136 ± 34 | 194 ± 80 |  |  |  | 
6 | CCCCCCCCCC[C@H](O)CN(CCCCC1NC(=O)C(CCCCN(C[C@@H](O)CCCCCCCCCC)C[C@@H](O)CCCCCCCCCC)NC1=O)C[C@@H](O)CCCCCCCCCC (mixture of isomers) [S4 with Racemic Lysine Core] | 170 ± 40 U/L and 155 ± 57 U/L | 132 ± 44 U/L and 157 ± 38 U/L |  |  |  | 375 ± 244 ng/mg Total Protein and 674 ± 147 ng/mg Total Protein |  | 
7 | CCCCCCCCCCC(O)CN(CCCC[C@@H]1NC(=O)[C@H](CCCCN(CC(O)CCCCCCCCCC)CC(O)CCCCCCCCCC)NC1=O)CC(O)CCCCCCCCCC (stereo in doubt) [R4-S,S-cKKE12, (3S,6S)-3,6-bis(4-(bis((S)-2-hydroxydodecyl)amino)butyl)piperazine-2,5-dione] | 175 ± 102 U/L | 144 ± 35 U/L | 175 ± 102 | 144 ± 35 | 449 ± 105 ng/mg Total Protein |  |  | 
8 | CCCCCCCCCC[C@H](O)CN(CCCC[C@H]1NC(=O)[C@@H](CCCCN(C[C@@H](O)CCCCCCCCCC)C[C@@H](O)CCCCCCCCCC)NC1=O)C[C@@H](O)CCCCCCCCCC [S4-RR] |  |  | 152 ± 9 | 180 ± 42 |  |  |  | 
